Source: US20230338310A1, “ANTI-VIRAL THERAPY” (priority 2020, published 2023)
In brackets after ≈: the same amount, converted by molar mass. Entries after “also recorded” stand apart in the source; their conditions may differ.

Legend:
[1] = system: SARS-CoV-2 (SARS-CoV-2-CVR-Gla-1); test: SARS-CoV-2 cytopathology (CPE) assay in Vero E6 MESO cells; assay type: cell-based
[2] = target: T1, glycine decarboxylase (Homo sapiens, UniProt P23378); test: Glycine utilisation by MRC-5 fibroblasts (fluorometric glycine assay of supernatants); assay type: cell-based; settings: 10 mg/L cysteamine, 4 h, glycine 300 μM, insulin 10 mg/L
T1 construct: endogenous in cells; host or cells: MRC-5 airway fibroblast cells
T1 sequence (P23378 36-1020): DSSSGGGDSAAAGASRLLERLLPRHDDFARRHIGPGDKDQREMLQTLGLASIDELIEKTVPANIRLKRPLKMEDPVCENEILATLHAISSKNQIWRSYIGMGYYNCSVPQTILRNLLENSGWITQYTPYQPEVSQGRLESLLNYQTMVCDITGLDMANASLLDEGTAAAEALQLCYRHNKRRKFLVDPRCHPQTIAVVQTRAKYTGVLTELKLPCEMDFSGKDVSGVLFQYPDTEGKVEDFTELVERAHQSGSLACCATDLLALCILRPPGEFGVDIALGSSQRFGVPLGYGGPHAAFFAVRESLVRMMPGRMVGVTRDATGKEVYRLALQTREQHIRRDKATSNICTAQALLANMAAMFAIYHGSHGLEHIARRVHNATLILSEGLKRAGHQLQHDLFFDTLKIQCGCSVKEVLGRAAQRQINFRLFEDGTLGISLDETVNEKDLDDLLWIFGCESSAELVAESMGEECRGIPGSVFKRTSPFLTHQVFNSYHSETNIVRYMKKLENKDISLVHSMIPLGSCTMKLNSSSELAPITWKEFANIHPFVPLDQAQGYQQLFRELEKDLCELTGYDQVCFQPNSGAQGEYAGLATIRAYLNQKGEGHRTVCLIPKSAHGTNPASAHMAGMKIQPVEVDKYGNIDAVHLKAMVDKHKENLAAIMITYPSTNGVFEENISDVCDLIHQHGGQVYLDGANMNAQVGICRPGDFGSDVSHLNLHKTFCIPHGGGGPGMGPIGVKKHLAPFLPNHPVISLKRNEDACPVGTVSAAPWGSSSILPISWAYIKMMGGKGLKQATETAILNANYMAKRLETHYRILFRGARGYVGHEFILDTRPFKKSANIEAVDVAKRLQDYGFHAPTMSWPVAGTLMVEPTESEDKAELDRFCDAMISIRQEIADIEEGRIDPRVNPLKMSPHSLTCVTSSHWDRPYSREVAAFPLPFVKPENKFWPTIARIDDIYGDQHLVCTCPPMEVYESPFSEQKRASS
Method: MRC-5 airway fibroblast cells were grown to 90% confluence in 2×12-well plates in EMEM+10% FBS. Cell culture media was replaced with:
Plate 1 • 1. 3×1 ml media alone (EMEM+10% FBS) • 2. 3×1 ml media+insulin (10 mg/L) • 3. 3×1 ml media+added glycine (300 μM) • 4. 3×1 ml media+glycine+insulin
As above, but with the addition of cysteamine to a final concentration of 10 mg/L Cells were then incubated at 37° C. and 5% C02 for 4 h. After incubation cell supernatants were harvested and transferred to labelled cryotubes and stored at −80° C. prior to assessment of glycine content. Insulin strongly stimulates glycine utilisation via glycine decarboxylase.
The supernatants were thawed prior to determining the glycine concentration using the fluorometric glycine assay kit from Abcam (Ab211100).
Manufacturer's instructions were followed and fluorometric assessment of glycine concentration in supernatants and standards was performed on the Biotek Synergy plate reader using 96-well black-walled plates at 535/587 nm (ex/em).

[3] = system: IL-6; test: IL-6 response of A549 airway epithelial cells infected with human coronavirus 229E (IL-6 Duoset immunoassay); assay type: cell-based; settings: 10^3 dilution of stock HCoV 229E, single doses of 2 or 10 mg/L, 20 h at 37° C., one-way ANOVA and Tukey
[4] = system: IFNβ; test: IFNβ response of A549 airway epithelial cells infected with human coronavirus 229E (IFN Beta Quantikine kit); assay type: cell-based; settings: 10^3 dilution of stock HCoV 229E, single dose of 10 mg/L, 20 h at 37° C., none detected with virus alone
[5] = system: hCoV 229E; test: qPCR of hCoV 229E M protein gene copies in supernatant of infected A549 lung epithelial cells; assay type: cell-based, human coronavirus 229E in human A549 cells; settings: 1 or 2 mg/L daily until 5th day, virus dilutions 10^-3 to 10^-5
Method: The effect of treatment of coronavirus-infected pulmonary cells with cysteamine was studied using A549 (sample obtained from deposit, deposited under ATCC CCL-185) being a human lung epithelial cell line. Prior to viral challenge A549 cells were grown at 37° C. in 5% CO2 atmosphere in growth media F-12 with Kaighn's modification+10% FBS +pen-strep [F-12K]) to 70-80% confluency in F12-K in tissue-culture-treated 96-well plates. Immediately prior to viral challenge, cells were washed in Hanks balanced salt solution and media was replaced with 100 μl challenge medium per well (F-12K) which contained 1% serum. […] Quantitative (real-time) polymerase chain reaction (qPCR) was carried out using PrecisionPLUS qPCR Master Mix (PrimerDesign) and forward and reverse oligonucleotides (229E Sense & 229E Antisense) specific to the hCoV 229E M protein gene. Amplification was carried out using a MiniOpticon Real-Time PCR system (Bio-Rad) and data was analysed using Opticon Monitor software (Bio-Rad). Analysed samples had been exposed to 10^−3 (1.12×10^12 pfu/ml), 10^−4 (1.12×10^11 pfu/ml) and 10^−5 (1.12×10^10 pfu/ml) of hCoV 229E and conducted from quadruplicate technical replicates. The number of copies of the 229E M protein gene were determined from a standard curve containing known number of copies of the 229E M protein gene.

[6] = system: hCoV 229E; test: Immunoperoxidase assay (TCID50/pfu) and microscopic examination of hCoV 229E-infected A549 lung epithelial cells; assay type: cell-based, human coronavirus 229E (ATCC VR/740) in human A549 cells
[7] = 14 days of cysteamine therapy adjunct to standard of care therapy; cited from earlier work
[8] = system: hCoV 229E; test: Immunoperoxidase assay (TCID50/pfu) and microscopic examination of hCoV 229E-infected MRC-5 lung fibroblast cells; assay type: cell-based, human coronavirus 229E (ATCC VR/740) in human MRC-5 cells; settings: MRC-5 cells
[9] = 2 mg/L daily for 5 days, all virus concentrations of the study

Question: What does the source list for `NCCS` [cysteamine, 2-Aminoethanethiol]?
Answer: IC50 ([1]; Severe acute respiratory syndrome coronavirus 2, Vero C1008, 72 h, read-out: IC50 (CPE induced by SARS-CoV-2)): 21.4 µg/mL (≈ 277 µM); CPE (Cytopathology) induced by SARS-CoV-2 ([1]; Vero E6 MESO cells): reduced the CPE; protection of the cell monolayer from SARS-CoV-2 CPE ([1]; Vero E6 MESO cells, 128 mg/L, 72 hours post-infection and later): almost complete protection; protection of the cell monolayer from SARS-CoV-2 CPE ([1]; Vero E6 MESO cells, therapeutically-achievable doses, 72 hours post-infection): modest; insulin-driven utilisation of exogenous glycine [2]: blocked; IL-6 secretion compared with viral infection alone [3]: significantly reduced IL-6 secretion; IFNβ response [4]: IFNβ is detected; viral load as number of copies of the 229E M protein gene [5]: reduces viral load; pfu/ml in wells infected with hCoV 229E ([6]; 1 mg/L cysteamine once a day for 5 days (untreated control 2.21 × 10^14/ml)): 3.94 × 10^15/ml pfu/ml; viral load (pfu/ml) relative to control without cysteamine ([6]; 2 mg/L): can reduce viral load; pfu/ml in wells infected with hCoV 229E ([6]; 2 mg/L cysteamine once a day for 5 days (untreated control 2.21 × 10^14/ml)): 7 × 10^9/ml pfu/ml; protection against infection with hCoV 229E [6, 9]: confer protection against infection; CRP levels versus SOCT alone [7]: significantly reduced; WBC levels versus SOCT alone [7]: significantly reduced; viral load (pfu/ml) relative to control without cysteamine ([8]; 2 mg/L): can reduce viral load; protection against infection with hCoV 229E [8, 9]: confer protection against infection; cell monolayer integrity by microscopic examination ([8]; day 4, 2 mg/L cysteamine, untreated cells destroyed at 10^-4 to 10^-7 viral dilution): not seen at all in any of the cysteamine treated cells; also recorded: visible intact monolayer
